Here are results for 7 compounds from US20030017519A1, “Electrochemical enzyme assay” (priority 1993, published 2003).

The data set is described as follows: Electrochemical characteristics of β-galactosidase labeled substrates and their cleaved labels. It is filed as physicochemical. Conditions: for Reversible?: electrochemical reversibility, per oxidation potential listed; for Elec. Active?: scanned in the potential range −0.6 V to +1.0 V vs. Ag/AgCl. An excerpt: When cleaved from the substrate, the label should be electrochemically active in this same potential range.

For `OCCOCCOCCOc1ccc(O)c2ccccc12` [4-(1,4,7, 10-tetraoxadecyl)-1-naphthol], the “Reversible?” value is recorded as “no” and the “Elec. Active?” value is “yes”.
For the compound `COc1ccc(O)c2ccccc12` [4-methoxy-1-naphthol], the “Reversible?” value is given as “quasi, no” and the “Elec. Active?” value is on record as “yes”.
Regarding `COc1ccc(O[C@@H]2O[C@H](CO)[C@H](O)[C@H](O)[C@H]2O)c2ccccc12`, the “Reversible?” value is reported as “quasi, no” and the “Elec. Active?” value was “yes”.
On to `OCCOCCOCCOc1ccc(O[C@@H]2O[C@H](CO)[C@H](O)[C@H](O)[C@H]2O)c2ccccc12`, for which the “Reversible?” value is on record as “no, no” and the “Elec. Active?” value is given as “yes”.
With `O=c1ccc2nc3ccc(O[C@@H]4O[C@H](CO)[C@H](O)[C@H](O)[C@H]4O)cc3oc-2c1` [resorufin-β-D-galactopyranoside], the “Reversible?” value is given as “Yes”, the “Elec. Active?” value was “yes” and the “Eox vs. Ag/AGCL” value is −0.100 V. Further, under “before and after cleavage”, the “electrochemical activity at the measurement potential” value was “electrochemically active at the measurement potential before and after cleavage”.
Regarding `O=c1ccc2nc3ccc(O)cc3oc-2c1` [resorufin], the “Reversible?” value was “yes”, the “Elec. Active?” value is “yes” and the “Eox vs. Ag/AGCL” value is reported as −0.100 V.
`Nc1ccc(O[C@@H]2O[C@H](CO)[C@H](O)[C@H](O)[C@H]2O)cc1` [p-aminophenyl-β-D-galactyopyranoside, p-aminophenyl-β-D-galactopyranoside]: the “Elec. Active?” value is “no”.
